Laboratory results from patent publication US8460274B2, “Long term drug delivery devices with polyurethane-based polymers and their manufacture” (Endo Pharmaceuticals Solutions Inc., priority 2008, dated 2013).
Counter-ions that a name gives are not always drawn.

Tests used:
[1] = Release rates of active agents from Tecophilic, Tecoflex and Carbothane polyurethane implants (Example 6); assay type: physicochemical
[2] = cited from earlier work
[3] = cited from earlier work; remark: listed apart in the source
[4] = subcutaneous implants, end of the third month
[5] = Carbothane PC-3595A, F.M.: 4,500

## Cc1ccccc1N1C(=O)c2cc(S(N)(=O)=O)c(Cl)cc2NC1C (stereo not drawn) [Metolazone]
[1]; Carbothane PC-3575A, F.M.: 620
  non-normalized release rate: 20 µg/day
  release rate normalized to surface area of the implant: 8.4 μg/day/cm^2
[1]; [5]
  non-normalized release rate: 6.1 µg/day
  release rate normalized to surface area of the implant: 2.6 μg/day/cm^2
[1]; Tecoflex EG 100A, F.M.: 10,000
  non-normalized release rate: 5.5 µg/day
  release rate normalized to surface area of the implant: 2.3 μg/day/cm^2
[1]; Tecoflex EG-85A, F.M.: 2,300
  non-normalized release rate: 77 µg/day
  release rate normalized to surface area of the implant: 32 μg/day/cm^2
[1]; Tecophilic HP-60D-20, 15% EWC
  non-normalized release rate: 124 µg/day
  release rate normalized to surface area of the implant: 50 μg/day/cm^2
[2]
  Log P: Log P = 2.50

## C#CCN(C)[C@H](C)Cc1ccccc1 [Selegiline HCL]
[1]; Carbothane PC-3575A, F.M.: 620
  non-normalized release rate: 70 µg/day
  release rate normalized to surface area of the implant: 36 μg/day/cm^2
[1]; [5]
  non-normalized release rate: 30 µg/day
  release rate normalized to surface area of the implant: 15 μg/day/cm^2
[1]; Tecoflex EG 100A, F.M.: 10,000
  non-normalized release rate: 14 µg/day
  release rate normalized to surface area of the implant: 7.2 μg/day/cm^2
[1]; Tecoflex EG-65D, F.M.: 37,000
  non-normalized release rate: 8 µg/day
  release rate normalized to surface area of the implant: 4.1 μg/day/cm^2
[1]; Tecoflex EG-85A, F.M.: 2,300
  non-normalized release rate: 3000 µg/day
  release rate normalized to surface area of the implant: 1518 μg/day/cm^2
[1]; Tecophilic HP-60D-20, 15% EWC
  non-normalized release rate: 600 µg/day
  release rate normalized to surface area of the implant: 294 μg/day/cm^2

## C[C@@H](O)[C@@H]1NC(=O)[C@H](CCCCN)NC(=O)[C@@H](Cc2c[nH]c3ccccc23)NC(=O)[C@H](Cc2ccccc2)NC(=O)[C@@H](NC(=O)[C@H](N)Cc2ccccc2)CSSC[C@@H](C(=O)N[C@H](CO)[C@@H](C)O)NC1=O [Octreotide Acetate]
[1]; Tecoflex EG-85A, F.M.: 2,300
  non-normalized release rate: 30 µg/day
  release rate normalized to surface area of the implant: 16 μg/day/cm^2
[1]; Tecophilic HP-60D-05, 5.5% EWC
  non-normalized release rate: 0 µg/day
  release rate normalized to surface area of the implant: 0 μg/day/cm^2
[1]; Tecophilic HP-60D-10, 8.7% EWC
  non-normalized release rate: 25 µg/day
  release rate normalized to surface area of the implant: 11 μg/day/cm^2
[1]; Tecophilic HP-60D-20, 15% EWC
  non-normalized release rate: 1500 µg/day
  release rate normalized to surface area of the implant: 758 μg/day/cm^2
[1]; Tecophilic HP-60D-35, 24% EWC
  non-normalized release rate: 4000 µg/day
  release rate normalized to surface area of the implant: 2022 μg/day/cm^2
[3]
  Relative Water Solubility: Very soluble,

## Cc1nc2n(c(=O)c1CCN1CCC(c3noc4cc(F)ccc34)CC1)CCCC2 [Risperidone]
[1]; Carbothane PC-3575A, F.M.: 620
  non-normalized release rate: 40 µg/day
[1]; [5]
  non-normalized release rate: 11 µg/day
[1]; Tecoflex EG 100A, F.M.: 10,000
  non-normalized release rate: 8 µg/day
[1]; Tecoflex EG-65D, F.M.: 37,000
  non-normalized release rate: 2 µg/day
[1]; Tecoflex EG-85A, F.M.: 2,300
  non-normalized release rate: 150 µg/day
[1]; Tecophilic HP-60D-20, 15% EWC
  non-normalized release rate: 150 µg/day
[4]
  risperidone level in the dog plasma: still present at a high level
[2]
  Log P: Log P = 3.28
